According to patent US7666898B2, “Multivalent indole compounds and use thereof as phospholipase-A2 inhibitors” (Ilypsa, Inc., priority 2005, dated 2010):
Read-outs that look alike come from different tables or passages of the source.

Assays:
[1] = target: Porcine group 1 B phospholipase A2 (pps PLA2) (Sus scrofa, UniProt P00592); assay: Fluorimetric PLA2 inhibition assay, porcine (Example 8)
Source text: (§1) In this example, a fluorimetric assay procedure was used to evaluate the indole and indole-related compounds of the invention as inhibitors of group 1B phospholipase A2 (PLA2) from human, mouse and porcine.
(§2) In general, this assay used a phosphatidylmethanol substrate with a pyrene fluorophore on the terminal end of the sn-2 fatty acyl chain. Without being bound by theory, close proximity of the pyrenes from neighboring phospholipids in a phospholipid vesicle caused the spectral properties to change relative to that of monomeric pyrene. Bovine serum albumin was present in the aqueous phase and captured the pyrene fatty acid when it is liberated from the glycerol backbone owing to the PLA2-catalyzed reaction. […] The effect of a given inhibitor and inhibitor concentration on human, mouse and porcine phospholipase was determined.
The following reagents and equipments were obtained from commercial vendors: • 1. Porcine group 1 B phospholipase A2 • 2. 1-hexadecanoyl-2-(1-pyrenedecanoyl)-sn-glycero-3-phosphomethanol (PPyrPM) • 3. Bovine serum albumin (BSA, fatty acid free) • 4. 2-Amino-2-(hydroxymethyl)-1,3-propanediol, hydrochloride (Tris-HCl) • 5. […]
(§3) The following procedure was performed to evaluate the inhibitory potency of the evaluated compounds. • 1. […]
Evaluated compounds were tested in duplicate and their values were averaged to plot the inhibition curve and calculate the IC50. […]

[2] = target: T1, human group 1B PLA2 (hps PLA2) (Homo sapiens, UniProt P04054); assay: Fluorimetric PLA2 inhibition assay, human (Example 8); format: biochemical
T1 construct: made in house; host or cells: E. coli
T1 sequence (P04054 23-148): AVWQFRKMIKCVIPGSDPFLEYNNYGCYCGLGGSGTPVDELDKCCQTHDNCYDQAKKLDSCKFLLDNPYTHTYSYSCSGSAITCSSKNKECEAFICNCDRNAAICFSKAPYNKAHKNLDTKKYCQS
Source text: as §1, §2
(§4) Recombinant human and mouse group 1B PLA2 were cloned and expressed in E. coli as insoluble inclusion bodies. The inclusion bodies were isolated and purified by sonicating cell pellet in lysis buffer (50 mM Tris-HCl pH 7.0, 250 mM NaCl, 0.5% Triton 100), centrifugation at 12,000×g, and washing three times in washing buffer (20 mM Tris-HCl pH 7.0, 250 mM NaCl, 0.5% Triton 100). Then the inclusion bodies were dissolved in dissolving buffer (50 mM Tris-HCl pH 7.0, 250 mM NaCl, 6 M Guanidine-HCl, 1 mM DTT) and dialyzed four times against 10 volumes of refolding buffer (20 mM Tris-HCl pH 7.0, 250 mM NaCl, 0.5M Guanidine-HCl, 5% (w/w) Glycerol, 2 mM reduced glutathione and 0.4 mM oxidized glutathione) at 4° C. The correctly refolded proteins were concentrated using Amicon Stirred cell under nitrogen pressure (<70 psi) and dialyzed against 10 volumes of 50 mM Tris-HCl pH 7.0, 250 mM NaCl and 5% (w/w) glycerol. Human and mouse group 1B PLA2 were further purified by High S ion exchange and gel filtration columns.
(§5) The following reagents were prepared: • 1. PPyrPM stock solution (1 mg/ml) in toluene:isopropanol (1:1) • 2. […]
as §3

[3] = target: T2, mouse group 1B PLA2 (mps PLA2) (Mus musculus, UniProt Q9Z0Y2); assay: Fluorimetric PLA2 inhibition assay, mouse (Example 8); format: biochemical
T2 construct: made in house; host or cells: E. coli
T2 sequence (Q9Z0Y2 23-146): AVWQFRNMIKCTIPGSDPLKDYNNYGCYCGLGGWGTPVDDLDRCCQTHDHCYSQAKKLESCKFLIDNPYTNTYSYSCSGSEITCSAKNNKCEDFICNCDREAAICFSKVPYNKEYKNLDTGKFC
Source text: as §1, §2, §4, §5, §3

[4] = system: Caco-2 cells; assay: In-vitro Caco-2 permeability study (Example 6B); conditions: Caco-2 monolayers, apical to basolateral
Procedure: (§6) Briefly, the human colon adenocarcinoma cell line, Caco-2, was used to model intestinal drug absorption.
(§7) In order to determine the compound permeability, Caco-2 cells (ATCC) were seeded into 24-well transwells (Costar) at a density of 6×10^4 cells/cm^2. Monolayers were grown and differentiated in MEM (Mediatech) supplemented with 20% FBS, 100 U/ml penicillin, and 100 ug/ml streptomycin at 37° C., 95% humidity, 95% air, and 5% CO2. The culture medium was refreshed every 48 hours. After 21 days, the cells were washed in transport buffer made up of HBSS with HEPES and the monolayer integrity was evaluated by measuring the trans-epithelial electrical resistance (TEER) of each well. […]
(§8) 150 ul samples were collected for LC/MS analysis from the basolateral well at 15 min, 30 min, 45 min, 1 hr, 3 hr, and 6 hr time points; replacing the volume with pre-warmed transport buffer after each sampling. The apparent permeabilities in cm/s were calculated based on the equation: Papp=(dQ/dt)×(1/C0)×(1/A) where dQ/dt is the permeability rate corrected for the sampling volumes over time, C0 is the initial concentration, and A is the surface area of the monolayer (0.32 cm^2). At the end of the experiment, TEER measurements were retaken and wells with readings below 350 ohm-cm^2 indicated diminished monolayer integrity such that the data from these wells were not valid for analysis.

[5] = Stability at low pH; format: physicochemical
[6] = target: mouse PLA2 IB enzyme (Mus musculus, UniProt Q9Z0Y2); conditions: pyrene substrate release from vesicles (Singer, Ghomashchi et al. 2002); read-out: IC50 versus the mouse PLA2 IB enzyme; cited from earlier work
mouse PLA2 IB enzyme, sequence (Q9Z0Y2 23-146): as above

[7] = target: human PLA2 IB enzyme (Homo sapiens, UniProt P04054); conditions: pyrene substrate release from vesicles (Singer, Ghomashchi et al. 2002); read-out: IC50 versus the human PLA2 IB enzyme; cited from earlier work
human PLA2 IB enzyme, sequence (P04054 23-148): as the sequence (P04054 23-148) above

[8] = system: C57BL/6 wild-type mice on high fat/high sucrose diabetogenic diet; assay: In-vivo evaluation in mice on high fat/high sucrose diabetogenic diet (Example 5); design: species or system mouse; conditions: for fasting glucose levels: low dose 25 mg/kg/day
Procedure: ILY-4001 (FIG. 2) was evaluated as a PLA2 IB inhibitor in a set of experiments using wild-type mice and genetically deficient PLA2 (−/−) mice (also referred to herein as PLA2 knock-out (KO) mice). In these experiments, wild-type and PLA2 (−/−) mice were maintained on a high fat/high sucrose diet, details of which are described below.
Briefly, four groups were set up, each having six mice. Three of the groups included six wild-type PLA2 (+/+) mice in each group (eighteen mice total), and one of the groups included six genetically deficient PLA2 (−/−) mice. One of the wild-type groups was used as a wild-type control group, and was not treated with ILY-4001. The other two wild-type groups were treated with ILY-4001—one group at a lower dose (indicated as “L” in Table 1) of 25 mg/kg/day, and the other at a higher dose (indicated as “H” in Table 1) of 90 mg/kg/day. The group comprising the PLA2 (−/−) mice was used as a positive control group.
The experimental protocol used in this study was as follows. The four groups of mice, including wild type and isogenic PLA2 (−/−) C57BL/J mice were acclimated for three days on a low fat/low carbohydrate diet. After the three day acclimation phase, the animals were fasted overnight and serum samples taken to establish baseline plasma cholesterol, triglyceride, and glucose levels, along with baseline body weight. The mice in each of the treatment groups were then fed a high fat/high sucrose diabetogenic diet (Research Diets D12331). 1000 g of the high fat/high sucrose D12331 diet was composed of casein (228 g), DL-methionine (2 g), maltodextrin 10 (170 g), sucrose (175 g), soybean oil (25 g), hydrogenated coconut oil (333.5 g), mineral mix S10001 (40 g), sodium bicarbonate (10.5 g), potassium citrate (4 g), vitamin mix V10001 (10 g), and choline bitartrate (2 g). This diet was supplemented with ILY-4001 treatments such that the average daily dose of the compound ingested by a 25 g mouse was: 0 mg/kg/day (wild-type control group and PLA2 (−/−) control group); 25 mg/kg/day (low-dose wild-type treatment group), or 90 mg/kg/day (high-dose wild-type treatment group). The animals were maintained on the high fat/high sucrose diet, with the designated ILY-4001 supplementation, for a period of ten weeks.
Body weight measurements were taken for all animals in all treatment and control groups at the beginning of the treatment period and at 4 weeks and 10 weeks after initiation of the study. (See Example 5A). Blood draws were also taken at the beginning of the treatment period (baseline) and at 4 weeks and 10 weeks after initiation of the study, in order to determine fasting glucose (See Example 5B). Cholesterol and triglyceride levels were determined from blood draws taken at the beginning of the treatment (baseline) and at ten weeks. (See Example 5C).

[9] = Pharmokinetic study of ILY-4001 (Example 6C); format: in vivo, mice; conditions: 30 mg/kg oral
Procedure: Bioavailability was calculated as a ratio of AUC-oral/AUC-intravenous (IV). To determine this ratio, a first set of subject animals were given a measured intravenous (IV) dose of ILY-4001, followed by a determination of ILY-4001 levels in the blood at various time points after administration (e.g., 5 minutes through 24 hours). Another second set of animals was similarly dosed using oral administration, with blood levels of ILY-4001 determined at various time points after administration (e.g., 30 minutes through 24 hours). The level of ILY-4001 in systemic circulation were determined by generally accepted methods (for example as described in Evans, G., A Handbook of Bioanalysis and Drug Metabolism. Boca Raton, CRC Press (2004)). Specifically, […]/mass spectrometry/mass spectrometry (LC/MS/MS) analytical methods were used to quantitate plasma concentrations of ILY-4001 after oral and intravenous administration. Pharmacokinetic parameters that were measured include Cmax, AUC, tmax, t1/2, and F (bioavailability).
In this procedure, ILY-4001 was dosed at 3 mg/kg IV and 30 mg/kg oral. […] This indicated about a 72% level of non-absorption of ILY-4001 from the GI tract into systemic circulation.

[10] = Bioavailability study of Compound 5-24 (Example 9); format: in vivo, male CD-1 Mus Musculus mice; conditions: oral ˜30 mg/kg vs IV ˜3 mg/kg, mice
Procedure: Bioavailability was determined for Compound 5-24 (ILY-V-24) as follows. Generally, the bioavailability was calculated by comparing a timecourse of the concentration of the test compound in the serum of mice after an intra-venous (IV) dosing, versus the timecourse of the concertration following an oral dosing of the test compound. The IV dose was ˜3 mg/kg, the oral dose was ˜30 mg/kg.
Oral Formulation. The oral formulation was prepared as follows. To sterile flask, 90 ml of sterile Milli-Q water was added. 9 ml of PEG-400 was added (final concentration of 9%). 50 ul of Tween-80 was added (final concentration of 0.05%). 0.9 g of CMC was weighed and added (final concentration of 0.9% w/v). […]
Study Design. […] On study day 0, all the animals were weighed, dosages were calculated and the animals were dosed by oral route (PO) or (IV) as outlined below in Table 7. […]
Calculations. Bioavailabilty was calculated as follows. Individual doses were calculated based on an average of body weights taken on the day of dosing. Serum concentrations of test compound, as well as the actual concentration of dosing solutions, were measured using 2-dimensional Mass Spectrophotometry after Liquid Chromatography (LC MS/MS). […]

[11] = system: Caco-2 cells
Procedure: as §6, §7, §8

[12] = low and high doses (25 and 90 mg/kg/day), 10 weeks

Porcine group 1 B phospholipase A2 (pps PLA2), sequence (P00592 23-146): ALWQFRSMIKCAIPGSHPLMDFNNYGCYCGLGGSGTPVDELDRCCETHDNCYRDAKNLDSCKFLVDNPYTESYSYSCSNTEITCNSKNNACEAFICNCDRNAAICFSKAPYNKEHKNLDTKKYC

2-(3-Aminooxalyl-1-{12-[3-aminooxalyl-4-(1-carboxy-2-methyl-propoxy)-2-methyl-indol-1-yl]-dodecyl}-2-methyl-1H-indol-4-yloxy)-3-methyl-butyric acid [ILY-v-44]
IC50 ([1]; read-out: ILYPSA IC50 (μM) pps PLA2, PPyrPM vesicles, 37° C.): 0.05 µM
IC50 ([2]; PPyrPM vesicles, 37° C., read-out: ILYPSA IC50 (μM) hps PLA2): 0.28 µM
IC50 ([3]; PPyrPM vesicles, 37° C., read-out: ILYPSA IC50 (μM) mps PLA2): 0.48 µM

Cc1c(C(=O)C(N)=O)c2c(OCC(=O)O)cccc2n1Cc1ccccc1-c1ccccc1 [ILY-4001, 2-(3-(2-amino-2-oxoacetyl)-1-(biphenyl-2-ylmethyl)-2-methyl-1H-indol-4-yloxy)acetic acid]
apparent permeability (cm/s) [4]: around 1.66×10^−7 cm/s
stability at low pH [5]: stable at low pH
IC50 [6]: ~150 nM
IC50 [7]: ~200 nM
body weight gain ([8]; 25 mg/kg/d and 90 mg/kg/d in diet, week 4 and week 10, vs wild-type control group): significantly reduced body weight gains
plasma levels of cholesterol [8, 12]: substantially reduced
plasma levels of triglycerides [8, 12]: substantially reduced
fasting glucose levels ([8]; week four): moderately beneficial effect
fasting glucose levels ([8]; week ten): a beneficial effect was not observed
level of non-absorption from the GI tract into systemic circulation [9]: ~72%

Cc1c(C(=O)C(N)=O)c2c(OCC(=O)O)cccc2n1CCCCCCCCSCCCCCCCCSCCCCCCCCn1c(C)c(C(=O)C(N)=O)c2c(OCC(=O)O)cccc21 [ILY-v-24, 2,2′-(1,1′-(8,8′-(Octane-1,8-diylbis(sulfanediyl))bis(octane-8,1-diyl))bis(3-(2-amino-2-oxoacetyl)-2-methyl-1H-indole-4,1-diyl))bis(oxy)diacetic acid]
bioavailability [10]: 4-8%

(3-Aminooxalyl-1-benzyl-2-methyl-1H-indol-4-yloxy)-phenyl-acetic acid [ILY-IV-32]
ILYPSA % inhibition at 15 μM pps PLA2 ([1]; 15 μM compound): 38.5%
ILYPSA % inhibition at 15 μM hps PLA2 ([2]; 15 μM compound): 41.73%
ILYPSA % inhibition at 15 μM mps PLA2 ([3]; 15 μM compound): 47.49%

Lucifer Yellow
apparent permeability (cm/s) [11]: around 2.82×10^−7+/−0.37×10^−7 cm/s
